Species on record: Rattus norvegicus
Test: Open TG-GATES - Regimen: Daily Repeat
Format: toxicity, organism-based, Sprague-Dawley
Design: regimen Daily Repeat, gender Male, age 6 weeks
Conditions: in vivo, po, 30 mg/kg, route gavage, dose level Middle; for APTT / Bas / Eos / Fbg / Hb / Ht / Lym / MCH / MCHC / MCV / Mono / Neu / PT / Plat / RBC / Ret / WBC: tissue Blood; for KIDNEY_L / KIDNEY_R / KIDNEY_TOTAL: tissue Kidney; for LIVER: tissue Liver; for A/G / ALP / ALT / AST / BUN / CRE / Ca / Cl / DBIL / GLC / IP / K / LDH / Na / PL / RALB / TBIL / TC / TG / TP / gamma-GTP: tissue Plasma

SMILES: CC1=C(/C=C/C(C)=C/C=C/C(C)=C/CO)C(C)(C)CCC1 [RETINOL]
- TERMINAL_BW (72 h, time 3 day): 230.8 g
- APTT (72 h, time 3 day): 23.3 s
- Bas (72 h, time 3 day): 0%
- Eos (72 h, time 3 day): 0.8%
- Fbg (72 h, time 3 day): 299 mg/dL
- Hb (72 h, time 3 day): 13.5 g/dL
- Ht (72 h, time 3 day): 39%
- Lym (72 h, time 3 day): 79.4%
- MCH (72 h, time 3 day): 21.5 pg
- MCHC (72 h, time 3 day): 34.7%
- MCV (72 h, time 3 day): 62 fL
- Mono (72 h, time 3 day): 2.4%
- Neu (72 h, time 3 day): 16.6%
- PT (72 h, time 3 day): 16.8 s
- Plat (72 h, time 3 day): 120.5 x10_4/uL
- RBC (72 h, time 3 day): 629.4 x10_4/ul
- Ret (72 h, time 3 day): 5.6%
- WBC (72 h, time 3 day): 103.8 x10_2/uL
- KIDNEY_L (72 h, time 3 day): 1 g
- KIDNEY_R (72 h, time 3 day): 0.9 g
- KIDNEY_TOTAL (72 h, time 3 day): 1.9 g
- LIVER (72 h, time 3 day): 11.2 g
- A/G (72 h, time 3 day): 1.3
- ALP (72 h, time 3 day): 2028 IU/L
- ALT (72 h, time 3 day): 48.8 IU/L
- AST (72 h, time 3 day): 78.6 IU/L
- BUN (72 h, time 3 day): 19.4 mg/dL
- CRE (72 h, time 3 day): 0.2 mg/dL
- Ca (72 h, time 3 day): 11 mg/dL
- Cl (72 h, time 3 day): 106.8 meq/L
- DBIL (72 h, time 3 day): 0.002 mg/dL
- GLC (72 h, time 3 day): 188.6 mg/dL
- IP (72 h, time 3 day): 6.4 mg/dL
- K (72 h, time 3 day): 4.3 meq/L
- LDH (72 h, time 3 day): 235.6 IU/L
- Na (72 h, time 3 day): 141.2 meq/L
- PL (72 h, time 3 day): 166.4 mg/dL
- RALB (72 h, time 3 day): 3.2 g/dL
- TBIL (72 h, time 3 day): 0.012 mg/dL
- TC (72 h, time 3 day): 78.8 mg/dL
- TG (72 h, time 3 day): 150 mg/dL
- TP (72 h, time 3 day): 5.7 g/dL
- gamma-GTP (72 h, time 3 day): 1.6 IU/L
- TERMINAL_BW ([…], time 7 day): 256.2 g
- TERMINAL_BW ([…], time 14 day): 297 g
- TERMINAL_BW ([…], time 28 day): 360.9 g
- APTT ([…], time 7 day): 26.4 s
- Bas ([…], time 7 day): 0%
- Eos ([…], time 7 day): 0.8%
- Fbg ([…], time 7 day): 275.2 mg/dL
- Hb ([…], time 7 day): 13.7 g/dL
- Ht ([…], time 7 day): 39.4%
- Lym ([…], time 7 day): 83.6%
- MCH ([…], time 7 day): 20.8 pg
- MCHC ([…], time 7 day): 34.8%
- MCV ([…], time 7 day): 59.8 fL
- Mono ([…], time 7 day): 1.6%
- Neu ([…], time 7 day): 13.2%
- PT ([…], time 7 day): 15.8 s
- Plat ([…], time 7 day): 125.2 x10_4/uL
- RBC ([…], time 7 day): 660.2 x10_4/ul
- Ret ([…], time 7 day): 4.6%
- WBC ([…], time 7 day): 81.8 x10_2/uL
- APTT ([…], time 14 day): 28.5 s
- Bas ([…], time 14 day): 0%
- Eos ([…], time 14 day): 0.8%
- Fbg ([…], time 14 day): 290.2 mg/dL
- Hb ([…], time 14 day): 13.4 g/dL
- Ht ([…], time 14 day): 38.1%
- Lym ([…], time 14 day): 76.2%
- MCH ([…], time 14 day): 20 pg
- MCHC ([…], time 14 day): 35.1%
- MCV ([…], time 14 day): 56.9 fL
- Mono ([…], time 14 day): 2.6%
- Neu ([…], time 14 day): 19.8%
- PT ([…], time 14 day): 15.9 s
- Plat ([…], time 14 day): 103.9 x10_4/uL
- RBC ([…], time 14 day): 671.4 x10_4/ul
- Ret ([…], time 14 day): 3.9%
- WBC ([…], time 14 day): 101 x10_2/uL
- APTT ([…], time 28 day): 37.3 s
- Bas ([…], time 28 day): 0%
- Eos ([…], time 28 day): 0.8%
- Fbg ([…], time 28 day): 283 mg/dL
- Hb ([…], time 28 day): 13.8 g/dL
- Ht ([…], time 28 day): 38.6%
- Lym ([…], time 28 day): 76.4%
- MCH ([…], time 28 day): 19.6 pg
- MCHC ([…], time 28 day): 35.7%
- MCV ([…], time 28 day): 54.9 fL
- Mono ([…], time 28 day): 2%
- Neu ([…], time 28 day): 19.8%
- PT ([…], time 28 day): 17.3 s
- Plat ([…], time 28 day): 116.5 x10_4/uL
- RBC ([…], time 28 day): 704 x10_4/ul
- Ret ([…], time 28 day): 2.7%
- WBC ([…], time 28 day): 133 x10_2/uL
- KIDNEY_L ([…], time 7 day): 1.1 g
- KIDNEY_R ([…], time 7 day): 1.1 g
- KIDNEY_TOTAL ([…], time 7 day): 2.2 g
- KIDNEY_L ([…], time 14 day): 1.2 g
- KIDNEY_R ([…], time 14 day): 1.2 g
- KIDNEY_TOTAL ([…], time 14 day): 2.4 g
- KIDNEY_L ([…], time 28 day): 1.4 g
- KIDNEY_R ([…], time 28 day): 1.4 g
- KIDNEY_TOTAL ([…], time 28 day): 2.8 g
- LIVER ([…], time 7 day): 11.7 g
- LIVER ([…], time 14 day): 14.1 g
- LIVER ([…], time 28 day): 15.1 g
- A/G ([…], time 7 day): 1.2
- ALP ([…], time 7 day): 1900.8 IU/L
- ALT ([…], time 7 day): 48.4 IU/L
- AST ([…], time 7 day): 82 IU/L
- BUN ([…], time 7 day): 17.2 mg/dL
- CRE ([…], time 7 day): 0.2 mg/dL
- Ca ([…], time 7 day): 10.5 mg/dL
- Cl ([…], time 7 day): 108.8 meq/L
- DBIL ([…], time 7 day): 0.002 mg/dL
- GLC ([…], time 7 day): 191 mg/dL
- IP ([…], time 7 day): 6.6 mg/dL
- K ([…], time 7 day): 4.4 meq/L
- LDH ([…], time 7 day): 208.2 IU/L
- Na ([…], time 7 day): 143 meq/L
- PL ([…], time 7 day): 148.6 mg/dL
- RALB ([…], time 7 day): 3 g/dL
- TBIL ([…], time 7 day): 0.002 mg/dL
- TC ([…], time 7 day): 71.4 mg/dL
- TG ([…], time 7 day): 175.2 mg/dL
- TP ([…], time 7 day): 5.5 g/dL
- gamma-GTP ([…], time 7 day): 1 IU/L
- A/G ([…], time 14 day): 1.2
- ALP ([…], time 14 day): 1990.8 IU/L
- ALT ([…], time 14 day): 49.4 IU/L
- AST ([…], time 14 day): 83.8 IU/L
- BUN ([…], time 14 day): 17.4 mg/dL
- CRE ([…], time 14 day): 0.2 mg/dL
- Ca ([…], time 14 day): 10.5 mg/dL
- Cl ([…], time 14 day): 108.2 meq/L
- DBIL ([…], time 14 day): 0 mg/dL
- GLC ([…], time 14 day): 198.6 mg/dL
- IP ([…], time 14 day): 5.9 mg/dL
- K ([…], time 14 day): 4.2 meq/L
- LDH ([…], time 14 day): 269 IU/L
- Na ([…], time 14 day): 142.8 meq/L
- PL ([…], time 14 day): 172.6 mg/dL
- RALB ([…], time 14 day): 3 g/dL
- TBIL ([…], time 14 day): 0.002 mg/dL
- TC ([…], time 14 day): 74.4 mg/dL
- TG ([…], time 14 day): 312 mg/dL
- TP ([…], time 14 day): 5.6 g/dL
- gamma-GTP ([…], time 14 day): 1.2 IU/L
- A/G ([…], time 28 day): 1
- ALP ([…], time 28 day): 1673.8 IU/L
- ALT ([…], time 28 day): 56.6 IU/L
- AST ([…], time 28 day): 79.8 IU/L
- BUN ([…], time 28 day): 16.2 mg/dL
- CRE ([…], time 28 day): 0.2 mg/dL
- Ca ([…], time 28 day): 10.1 mg/dL
- Cl ([…], time 28 day): 108 meq/L
- DBIL ([…], time 28 day): 0 mg/dL
- GLC ([…], time 28 day): 183.4 mg/dL
- IP ([…], time 28 day): 6.2 mg/dL
- K ([…], time 28 day): 4.2 meq/L
- LDH ([…], time 28 day): 138.4 IU/L
- Na ([…], time 28 day): 141 meq/L
- PL ([…], time 28 day): 145 mg/dL
- RALB ([…], time 28 day): 2.9 g/dL
- TBIL ([…], time 28 day): 0.026 mg/dL
- TC ([…], time 28 day): 66.6 mg/dL
- TG ([…], time 28 day): 203.4 mg/dL
- TP ([…], time 28 day): 5.7 g/dL
- gamma-GTP ([…], time 28 day): 1.2 IU/L

— ChEMBL document CHEMBL3885861, “Open TG-GATES”
